Reference: the supplement of paper PMC10307832

Key:
Experiment in all cases: relative viability (nuclei count vs DMSO), 5 days (fraction); higher = more cells survive
AZ505 = compound: C1CCC(CC1)N(CCNCCC2=C3C(=C(C=C2)O)NC(=O)CO3)C(=O)CCNCCC4=CC(=C(C=C4)Cl)Cl [AZ505]
Outline: (§1)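 Lung cancer cell lines in 1536-well plates were kept overnight at 37 °C, then pinned with five library-drug doses (not always all listed) spaced by √10 on vehicle-anchored plates. After 5 days without medium change, cells were fixed, permeabilised and Hoechst-stained in one step, imaged at 4×, and nuclei were counted with MetaXpress. Viability is treated-well nuclei divided by vehicle-well nuclei, taken as the median over plates. Plates passed only with control CV below 25% and at least one doubling.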

Dactolisib = compound: Cn1c(=O)n(-c2ccc(C(C)(C)C#N)cc2)c2c3cc(-c4cnc5ccccc5c4)ccc3ncc21 [Dactolisib]
Outline: as §1

AZ505 + Alpelisib = compound: C1CCC(CC1)N(CCNCCC2=C3C(=C(C=C2)O)NC(=O)CO3)C(=O)CCNCCC4=CC(=C(C=C4)Cl)Cl [AZ505] + Cc1nc(NC(=O)N2CCC[C@H]2C(N)=O)sc1-c1ccnc(C(C)(C)C(F)(F)F)c1 [Alpelisib] (partner 2 µM)
Outline: (§2)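 One day after seeding in 1536-well plates, lung cancer cell lines were dosed by pin tool. Dosing was either single-drug or a fixed anchor-drug dose plus five library-drug doses (not always all listed) in √10 steps. After 5 days, nuclei were stained in one fix-and-stain step and counted on 4× images, and relative viability is the nuclei count of treated wells over that of vehicle wells, given as the median of duplicate plates.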

Dactolisib + Bortezomib = compound: Cn1c(=O)n(-c2ccc(C(C)(C)C#N)cc2)c2c3cc(-c4cnc5ccccc5c4)ccc3ncc21 [Dactolisib] + CC(C)C[C@H](NC(=O)[C@H](Cc1ccccc1)NC(=O)c1cnccn1)B(O)O [Bortezomib] (partner 0.002 µM)
Outline: as §2

Cell Line | relative viability (AZ505; 0.08 µM) | relative viability (AZ505; 0.253 µM) | relative viability (AZ505; 0.8 µM) | relative viability (AZ505; 2.53 µM) | relative viability (AZ505; 8 µM) | relative viability (Dactolisib; 0.002 µM) | relative viability (Dactolisib; 0.006325 µM) | relative viability (Dactolisib; 0.02 µM) | relative viability (Dactolisib; 0.06325 µM) | relative viability (Dactolisib; 0.2 µM) | relative viability (AZ505 + Alpelisib; first compound 0.08 µM) | relative viability (AZ505 + Alpelisib; first compound 0.253 µM) | relative viability (AZ505 + Alpelisib; first compound 0.8 µM) | relative viability (AZ505 + Alpelisib; first compound 2.53 µM) | relative viability (AZ505 + Alpelisib; first compound 8 µM) | relative viability (Dactolisib + Bortezomib; first compound 0.002 µM) | relative viability (Dactolisib + Bortezomib; first compound 0.006325 µM) | relative viability (Dactolisib + Bortezomib; first compound 0.02 µM) | relative viability (Dactolisib + Bortezomib; first compound 0.06325 µM) | relative viability (Dactolisib + Bortezomib; first compound 0.2 µM)
NCI-H2126 | 0.993 | 0.945 | 0.971 | 0.984 | 0.988 | 1.09 | 0.936 | 0.892 | 0.638 | 0.488 | 0.729 | 0.781 | 0.771 | 0.746 | 0.822 | 1.19 | 1.16 | 1.12 | 0.921 | 0.551
EMC-BAC-2 | 0.948 | 0.789 | 0.923 | 1.03 | 0.987 | 1.07 | 0.924 | 0.88 | 0.636 | 0.494 | 0.718 | 0.759 | 0.696 | 0.761 | 0.831 | 1.11 | 1.06 | 1.09 | 0.859 | 0.63
NCI-H1993 | 0.871 | 0.888 | 0.903 | 1.02 | 1.09 | 1.01 | 0.702 | 0.663 | 0.59 | 0.603 | 0.544 | 0.729 | 0.753 | 0.741 | 0.608 | 0.94 | 0.689 | 0.754 | 0.522 | 0.455
NCI-H520 | 0.92 | 1.07 | 0.86 | 1.08 | 1.04 | 1.01 | 0.777 | 0.764 | 0.243 | 0.2 | 0.92 | 0.829 | 0.862 | 0.84 | 0.99 | 0.397 | 0.715 | 0.263 | 0.121 | 0.134
NCI-H647 | 0.943 | 1.01 | 0.996 | 0.895 | 1.02 | 1.05 | 0.824 | 0.691 | 0.254 | 0.208 | 1.04 | 1.46 | 1.05 | 1.07 | 1.08 | 0.868 | 0.798 | 0.42 | 0.193 | 0.143
NCI-H1792 | 0.757 |  | 0.803 | 0.947 | 0.945 | 1.04 | 0.635 | 0.551 | 0.317 | 0.175 | 0.719 | 0.769 | 0.66 | 0.701 | 0.642 | 0.872 | 0.948 | 0.936 | 0.598 | 0.313
SW 1573 | 0.9 | 0.964 | 0.899 | 0.914 | 0.958 | 1.07 | 0.838 | 0.696 | 0.414 | 0.284 | 0.658 | 0.714 | 0.661 | 0.82 | 0.858 | 1.18 | 0.847 | 0.771 | 0.331 | 0.373
NCI-H1299 | 0.981 | 0.968 | 0.969 | 0.948 | 1 | 1 | 1.05 | 1.02 | 0.769 | 0.885 | 0.986 | 1.06 | 1.01 | 0.978 | 0.998 | 1.02 | 1.05 | 1.05 | 0.957 | 0.7
NCI-H2009 | 0.987 | 0.986 | 0.998 | 0.921 | 0.952 | 1.05 | 0.983 | 1.04 | 0.598 | 0.366 | 1.07 | 1.11 | 1.12 | 1.1 | 1.13 | 1.07 | 1.01 | 0.972 | 0.44 | 0.288
LOU-NH91 | 0.9 | 0.937 | 0.967 | 0.983 | 1.01 | 0.994 | 0.997 | 0.885 | 0.613 | 0.623 | 0.622 | 0.636 | 0.611 | 0.631 | 0.742 | 0.526 | 0.502 | 0.49 | 0.458 | 0.43
NCI-H2405 | 0.769 | 0.707 | 0.784 | 0.892 | 0.82 | 1.01 | 0.993 | 0.97 | 0.607 | 0.447 | 0.4 | 0.426 | 0.503 | 0.384 | 0.508 | 1 | 0.97 | 0.96 | 0.892 | 0.628
LCLC-97TM1 | 0.893 | 0.838 | 0.897 | 0.759 | 1.06 | 1.01 | 1.02 | 0.9 | 0.802 | 0.388 | 0.327 | 0.333 | 0.26 | 0.247 | 0.363 | 0.766 | 0.489 | 0.528 | 0.525 | 0.128
NCI-H596 | 0.888 | 0.784 | 0.972 | 0.955 | 0.957 | 1.09 | 0.91 | 0.886 | 0.558 | 0.409 | 0.483 | 0.453 | 0.49 | 0.626 | 0.52 | 0.939 | 0.989 | 0.908 | 0.769 | 0.357
NCI-H727 | 0.836 | 0.879 | 0.864 | 0.654 | 1.11 | 0.839 | 1.02 | 0.9 | 0.487 | 0.414 | 0.535 | 0.621 | 0.505 | 0.598 | 0.694 | 1.03 | 0.58 | 0.872 | 0.35 | 0.267
H3255 | 0.901 | 1 | 1.01 | 1.06 | 1.03 | 1.09 | 0.908 | 0.91 | 0.784 | 0.627 | 0.62 | 0.8 | 0.715 | 0.705 | 0.813 | 0.798 | 0.693 | 0.766 | 0.664 | 0.39
NCI-H1437 | 0.977 | 1 | 0.983 | 1.01 | 0.991 | 1.01 | 0.991 | 1.03 | 0.914 | 0.741 | 0.852 | 0.93 | 0.876 | 0.932 | 1 | 0.567 | 0.564 | 0.518 | 0.377 | 0.278
LU99A | 0.782 | 1.02 | 0.979 | 0.813 | 0.944 | 0.93 | 0.904 | 0.766 | 0.429 | 0.31 | 0.55 | 0.519 | 0.618 | 0.478 | 0.493 | 1.12 | 0.903 | 0.543 | 0.366 | 0.249
HCC-827 | 0.992 | 1.03 | 0.982 | 1.02 | 1.08 | 1.06 | 1.05 | 0.955 | 1.07 | 1.03 | 0.921 | 0.997 | 0.87 | 0.947 | 1.06 | 1.12 | 1.01 | 1.11 | 1.14 | 1.05
HCC-366 | 0.982 | 0.956 | 0.99 | 0.897 | 1.01 | 0.975 | 1.04 | 1.05 | 0.734 | 0.569 | 0.306 | 0.379 | 0.326 | 0.411 | 0.385 | 0.963 | 1.09 | 0.988 | 0.593 | 0.481
BEN | 0.873 | 0.97 | 0.905 | 1.1 | 1.05 | 1.02 | 0.883 | 0.81 | 0.536 | 0.366 | 0.947 | 1.01 | 0.959 | 1.02 | 1.2 | 0.766 | 0.795 | 0.809 | 0.598 | 0.289
NCI-H23 | 0.848 |  | 0.874 | 0.995 | 1.12 | 1.05 | 0.863 | 0.835 | 0.372 | 0.335 | 0.617 |  | 0.653 | 0.644 | 0.845 | 1.04 | 0.924 | 0.798 | 0.247 | 0.294
201T | 0.962 | 0.998 | 0.98 | 0.974 | 1.01 | 1.02 | 1.01 | 0.992 | 0.863 | 0.636 | 0.942 | 1.01 | 0.973 | 1.04 | 1.05 | 1.05 | 1.08 | 1.08 | 1.07 | 0.856
NCI-H460 | 0.991 | 0.99 | 0.966 | 1 | 0.976 | 1.04 | 0.989 | 0.984 | 0.541 | 0.488 | 0.458 | 0.559 | 0.485 | 0.507 | 0.469 | 1.28 | 1.11 | 0.984 | 0.106 | 0.0739
NCI-H661 | 0.951 | 1.01 | 0.963 | 0.963 | 1 | 1.08 | 1.03 | 0.953 | 0.482 | 0.432 | 0.666 | 0.493 | 0.738 | 0.81 | 0.907 | 0.659 | 0.87 | 0.67 | 0.397 | 0.288
HCC-15 | 0.938 | 0.963 | 1.03 | 0.956 | 1.1 | 0.98 | 0.974 | 0.985 | 0.635 | 0.422 | 0.773 | 0.926 | 0.918 | 0.809 | 0.933 | 0.977 | 0.987 | 0.961 | 0.823 | 0.554
NCI-H1563 | 0.998 | 1.04 | 0.968 | 0.93 | 0.939 | 1 | 0.928 | 0.885 | 0.605 | 0.562 | 0.932 | 0.911 | 0.873 | 0.886 | 0.915 | 0.904 | 0.903 | 0.819 | 0.603 | 0.59
ABC-1 | 0.899 | 0.963 | 0.975 | 0.985 | 1.05 | 0.954 | 0.921 | 0.868 | 0.719 | 0.458 | 0.881 | 1.01 | 1.1 | 1.26 | 1.02 | 0.345 | 0.296 | 0.303 | 0.312 | 0.247
LCLC-103H | 0.989 | 0.903 | 0.925 | 1.02 | 0.896 | 1.03 | 0.95 | 0.964 | 0.785 | 0.624 | 0.853 | 0.818 | 0.977 | 0.848 | 0.957 | 1.03 | 1.14 | 0.964 | 0.743 | 0.71
NCI-H441 | 0.865 | 1.09 | 1.07 | 0.997 | 1.24 | 1.28 | 1.02 | 0.925 | 0.48 | 0.298 | 0.721 | 0.698 | 0.599 | 0.671 | 0.761 | 0.523 | 0.457 | 0.305 | 0.157 | 0.196
EPLC-272H | 0.817 | 0.812 | 0.755 | 0.849 | 0.92 | 1.01 | 0.766 | 0.76 | 0.569 | 0.403 | 0.76 | 0.719 | 0.679 | 0.789 | 0.958 | 0.899 | 0.903 | 0.721 | 0.693 | 0.496
